{"source": "PubChem BioAssay AID1963829", "about": "(Molecular Pharmacology Branch, DTP, NCI, 2024);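 note: spheroids exposed to drugs for seven days before viability read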;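 for viability, T/C: 100% = DMSO vehicle control wells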", "system": "935938-334-R-J1-PDC complex spheroid viability", "assay": "Anticancer human tumor 935938-334-R-J1-PDC patient-derived small intestine adenocarcinoma cell line growth inhibition [POLQ]", "conditions": "for IC50: curve of first compound; for viability, T/C: stronger effect = lower value", "method": "Multicellular complex tumor spheroid response to Polymerase (POL) inhibitors (novobiocin, ART-558, RP6685) in combination with a variety of drugs and investigational agents in selected tumor cell lines\nThe POL inhibitors (novobiocin, ART-558, and RP6685) were evaluated both individually and in combination with standard of care and investigational anticancer small molecules within a complex spheroid model of solid tumors. . Complex spheroids include a stromal component modeled by human endothelial cells (HUVEC) and fibroblasts modeled by human mesenchymal stem cells (MSCs). The concentration ranges selected for each drug and investigational agent were based upon clinically achievable concentrations if the clinical Cmax of the agent was known.\nCompounds. The drugs and investigational agents: novobiocin (NSC847541), ART-558 (NSC835418), RP-6685 (NSC848927), peposertib (NSC802822), ceralasertib (NSC780249), elimusertib (NSC800525), camonsertib (NSC841442), AZD-1390 (NSC803789), olaparib (NSC753686), talazoparib (NSC767125), rucaparib (NSC756644), sotorasib (NSC818433), MRTX-1133 (NSC836407), SN-38 (NSC673596), topotecan (NSC609699), epotoside (NSC141540), doxorubicin (NSC123127), gemcitabine (NSC613327), 5-fluorouracil (NSC19893), paclitaxel (NSC125973), vemurafenib (NSC761431), MSA-2 (NSC828583), SN-011 (NSC837082), adavosertib (NSC754352), prexasertib (NSC758257), carboplatin (NSC241240) and oxaliplatin (NSC266046), were obtained from the National Cancer Institute (NCI) Developmental Therapeutics Program Chemical Repository (21). The FDA-approved anticancer drug set is available from the Developmental Therapeutics Program at https://dtp.cancer.gov/organization/dscb/obtaining/. […] The stock solutions were prepared in dimethyl sulfoxide (DMSO, Sigma-Aldrich, St. Louis, MO, cat. D2650), except for the platinum compounds which were prepared in saline (Quality Biological, Gaithersburg, MD, cat. 114-055-101), at 800-fold the tested concentration and stored at -70 degrees C prior to their use. All drugs and investigational agents were tested over a range starting from a high concentration at or near the clinical Cmax and decreasing in half-log increments. If the clinical Cmax for an agent had not been determined, the highest concentration tested was 10 microM, except for SN-38, which was tested at a high concentration of 1 microM.\nCell Culture. All cells were maintained in an incubator at 37 degrees C and 5% CO2 with 95% humidity. The PDC lines were cultured according to standard operating procedures established by the NCI PDMR (https://pdmr.cancer.gov). Table 3 of the manuscript, lists the cell lines along with the number of the three cell types plated to form the mct-spheroids and media for tumor cell growth. After thawing, all PDC lines, except 997537-175-T-J1-PDC and 415267-285-R-J2-PDC, were cultured in Matrigel-coated flasks prepared with a working solution of 1X Ham's F-12 nutrient mix, without supplementation (Thermo Fisher Scientific, cat. 11765054), 100 U/mL penicillin-streptomycin (Thermo Fisher Scientific, cat. 15140122), and 2.5% Matrigel (Corning Inc., Corning, NY, cat. 354248) for the first three passages. The two PDC lines 997537-175-T-J1-PDC and 415267-285-R-J2-PDC were cultured on uncoated flasks. The 857933-349-R-J2-PDC line was cultured in 6C/Colon 1B media containing advanced DMEM/F-12 (Thermo Fisher Scientific, cat. 12634028), 10 mM HEPES (Thermo Fisher Scientific, cat. 15630080), 1X GlutaMAX supplement (Thermo Fisher Scientific, cat. 35050061), 0.1 mg/mL primocin (InvivoGen, San Diego, CA, cat. ant-pm-2), 10% defined fetal bovine serum, heat inactivated (HyClone Laboratories Inc., Logan, UT, cat. SH30070.03HI), 50% L-WRN conditioned media (ATCC, cat. CRL-3276), 1.25 mM N-Acetyl-L-cysteine (Sigma-Aldrich, cat. A9165), 10 mM nicotinamide (Sigma-Aldrich, cat. N0636), 1X B-27 supplement (Thermo Fisher Scientific, cat. 17504044), 1X N-2 supplement (Thermo Fisher Scientific, cat. […]", "data": [{"smiles": "C=CCn1c(=O)c2cnc(Nc3ccc(N4CCN(C)CC4)cc3)nc2n1-c1cccc(C(C)(C)O)n1", "note": "+ Nc1ccc(C#CCN(C(=O)Cc2ncc(C(F)(F)F)cc2C(F)(F)F)c2ccc(F)cc2)nn1", "values": [{"measurement": "IC50", "setting": "second compound 0.0316 µM", "result": 0.534, "unit": "µM"}, {"measurement": "IC50", "setting": "second compound 0.1 µM", "result": 0.661, "unit": "µM"}, {"measurement": "IC50", "setting": "second compound 0.316 µM", "result": 0.592, "unit": "µM"}, {"measurement": "IC50", "setting": "second compound 1 µM", "result": 0.273, "unit": "µM"}, {"measurement": "IC50", "setting": "second compound 3.16 µM", "result": 0.601, "unit": "µM"}, {"measurement": "IC50", "setting": "second compound 10 µM", "result": 0.478, "unit": "µM"}, {"measurement": "viability, T/C", "setting": "second compound 0.0316 µM, first compound 0.00316 µM", "result": 90.4, "unit": "%"}, {"measurement": "viability, T/C", "setting": "second compound 0.0316 µM, first compound 0.01 µM", "result": 93.5, "unit": "%"}, {"measurement": "viability, T/C", "setting": "second compound 0.0316 µM, first compound 0.0316 µM", "result": 73.8, "unit": "%"}, {"measurement": "viability, T/C", "setting": "second compound 0.0316 µM, first compound 0.1 µM", "result": 79.8, "unit": "%"}, {"measurement": "viability, T/C", "setting": "second compound 0.0316 µM, first compound 0.316 µM", "result": 77.2, "unit": "%"}, {"measurement": "viability, T/C", "setting": "second compound 0.0316 µM, first compound 1 µM", "result": 19.1, "unit": "%"}, {"measurement": "viability, T/C", "setting": "second compound 0.1 µM, first compound 0.00316 µM", "result": 76.5, "unit": "%"}, {"measurement": "viability, T/C", "setting": "second compound 0.1 µM, first compound 0.01 µM", "result": 81.3, "unit": "%"}, {"measurement": "viability, T/C", "setting": "second compound 0.1 µM, first compound 0.0316 µM", "result": 92.6, "unit": "%"}, {"measurement": "viability, T/C", "setting": "second compound 0.1 µM, first compound 0.1 µM", "result": 96.6, "unit": "%"}, {"measurement": "viability, T/C", "setting": "second compound 0.1 µM, first compound 0.316 µM", "result": 89.5, "unit": "%"}, {"measurement": "viability, T/C", "setting": "second compound 0.1 µM, first compound 1 µM", "result": 29.1, "unit": "%"}, {"measurement": "viability, T/C", "setting": "second compound 0.316 µM, first compound 0.00316 µM", "result": 85.8, "unit": "%"}, {"measurement": "viability, T/C", "setting": "second compound 0.316 µM, first compound 0.01 µM", "result": 70.4, "unit": "%"}, {"measurement": "viability, T/C", "setting": "second compound 0.316 µM, first compound 0.0316 µM", "result": 72.1, "unit": "%"}, {"measurement": "viability, T/C", "setting": "second compound 0.316 µM, first compound 0.1 µM", "result": 99.6, "unit": "%"}, {"measurement": "viability, T/C", "setting": "second compound 0.316 µM, first compound 0.316 µM", "result": 77.1, "unit": "%"}, {"measurement": "viability, T/C", "setting": "second compound 0.316 µM, first compound 1 µM", "result": 26.2, "unit": "%"}, {"measurement": "viability, T/C", "setting": "second compound 1 µM, first compound 0.00316 µM", "result": 80, "unit": "%"}, {"measurement": "viability, T/C", "setting": "second compound 1 µM, first compound 0.01 µM", "result": 105, "unit": "%"}, {"measurement": "viability, T/C", "setting": "second compound 1 µM, first compound 0.0316 µM", "result": 82.3, "unit": "%"}, {"measurement": "viability, T/C", "setting": "second compound 1 µM, first compound 0.1 µM", "result": 107, "unit": "%"}, {"measurement": "viability, T/C", "setting": "second compound 1 µM, first compound 0.316 µM", "result": 43.6, "unit": "%"}, {"measurement": "viability, T/C", "setting": "second compound 1 µM, first compound 1 µM", "result": 25.4, "unit": "%"}, {"measurement": "viability, T/C", "setting": "second compound 3.16 µM, first compound 0.00316 µM", "result": 95.9, "unit": "%"}, {"measurement": "viability, T/C", "setting": "second compound 3.16 µM, first compound 0.01 µM", "result": 79.3, "unit": "%"}, {"measurement": "viability, T/C", "setting": "second compound 3.16 µM, first compound 0.0316 µM", "result": 61.8, "unit": "%"}, {"measurement": "viability, T/C", "setting": "second compound 3.16 µM, first compound 0.1 µM", "result": 85.4, "unit": "%"}, {"measurement": "viability, T/C", "setting": "second compound 3.16 µM, first compound 0.316 µM", "result": 88.7, "unit": "%"}, {"measurement": "viability, T/C", "setting": "second compound 3.16 µM, first compound 1 µM", "result": 24.3, "unit": "%"}, {"measurement": "viability, T/C", "setting": "second compound 10 µM, first compound 0.00316 µM", "result": 96.7, "unit": "%"}, {"measurement": "viability, T/C", "setting": "second compound 10 µM, first compound 0.01 µM", "result": 82.6, "unit": "%"}, {"measurement": "viability, T/C", "setting": "second compound 10 µM, first compound 0.0316 µM", "result": 118, "unit": "%"}, {"measurement": "viability, T/C", "setting": "second compound 10 µM, first compound 0.1 µM", "result": 81.3, "unit": "%"}, {"measurement": "viability, T/C", "setting": "second compound 10 µM, first compound 0.316 µM", "result": 65.4, "unit": "%"}, {"measurement": "viability, T/C", "setting": "second compound 10 µM, first compound 1 µM", "result": 25.2, "unit": "%"}]}]}
